# Assay results from patent US20240238379A1, “Compositions and Methods for the Prevention and Treatment of Stress-Induced Fear, Depressive-Like and Anxiety-Like Behavior” (The Trustees of Columbia University in the City of New York, priority 2021, published 2024).
# Legend:
# [1] = test system: 129S6/SvEv mice; assay: Contextual fear conditioning (CFC) freezing; format: in vivo; settings: for Freezing upon CFC re-exposure, (R,S)-ketamine versus saline: female mice, IP 10 mg/kg one week before CFC
# Method: Saline, (R,S)-ketamine (10 mg/kg), or Bay 55-9837 (2.5 or 5 mg/kg) was administered 1 week prior to 3-shock contextual fear conditioning (CFC) stress in female 129S6/SvEv mice. Five days later, mice were assayed for fear, behavioral despair, locomotion, exploratory behavior, and hyponcophagia.
# Male 129S6/SvEv mice were administered the same behavioral paradigm as described in Example 1. […] There was no effect of drug on immobility time during FST Day 1.
# Female 129S6/SvEv mice were given a single injection of saline, (R,S)-ketamine (10 mg/kg), or Bay 55-9837 (2.5 mg/kg) 5 minutes after 3-shock CFC training.
# Male 129S6/SvEv mice were administered the same behavioral paradigm as in Example 3. […] Similarly, in the NSF, Bay 55-9837, but not (R,S)-ketamine suppressed latency to feed in the OF when compared with saline controls.
# Female 129S6/SEv mice were administered a single injection of saline of Bay 55-9837 (2.5 mg/kg) and placed in Piezo sleep boxes. One week later, mice were administered 3-shock CFC training or context exposure and again placed back into Piezo sleep boxes. Five days later, mice were re-exposed to the training context. […] During CFC training, there was no effect of drug. […] There was a significant effect of drug and stress as well as a drug x stress interaction.
# (§1) Female 129S6/SvEv mice were administered an intracerebroventricular infusion of artificial cerebrospinal fluid, PACAP (6-38) (VPAC2 antagonist), or Bay 55-9837. Five minutes after, mice were given an IP injection of saline or (R,S)-ketamine (10 mg/kg). One week later, mice were administered 3-shock CFC training. Five days subsequently, mice were tested in CFC re-exposure and the FST. […] Upon CFC re-exposure, there was a significant group x drug interaction. […] In the PACAP (6-38) group, the prophylactic effect of (R,S)-ketamine was blocked.
# [2] = test system: 129S6/SvEv mice; assay: Forced swim test (FST); format: in vivo; settings: female mice
# Method: as §1, with “blocked. […]” for “blocked.”
Compound,"Freezing upon CFC re-exposure, (R,S)-ketamine versus saline ([1]; PACAP(6-38) ICV group)","Freezing upon CFC re-exposure, (R,S)-ketamine versus saline ([1]; Vehicle ICV group)","Freezing during CFC re-exposure ([1]; male mice, same paradigm as Example 3)","Freezing during CFC training ([1]; male mice, same paradigm as Example 3 (single injection 5 minutes after 3-shock CFC training))","Behavioral despair on FST Day 2 ([2]; 1 week prior to 3-shock CFC stress, 10 mg/kg)","Immobility time on Day 2 of the FST ([2]; 5 minutes after 3-shock CFC training, 10 mg/kg)","Immobility on FST Day 2 compared with Vehicle/saline ([2]; ICV Vehicle then IP (R,S)-ketamine 10 mg/kg)","Prophylactic effect of (R,S)-ketamine on FST Day 2 ([2]; ICV PACAP (6-38) then IP (R,S)-ketamine 10 mg/kg)"
"CNC1(c2ccccc2Cl)CCCCC1=O (racemic) [(R,S)-ketamine]",not significantly different,not significantly different,did not significantly alter,did not significantly alter,reduced,significantly reduced,significantly lower,
PACAP (6-38),,,,,,,,blocked
